Measurements published in patent publication US20250120932A1, “PHARMACEUTICAL COMPOSITION” (NEUROPRO THERAPEUTICS, INC., priority 2021, published 2025).

Assays:
in vitro = conditions: human; for recovery at 2 h: Caco-2, pH 7.4, Mean % Solution Recovery A to B
Experimental: (§1) Caco-2 cells purchased from ATCC were seeded onto […] (PET) in 96-well Corning Insert plates at 1×10^5 cells/cm^2, and refreshed medium every 4˜5 days until to the 21st to 28th day for confluent cell monolayer formation.
(§2) The transport buffer in the study was HBSS with 10.0 mM HEPES at pH 7.40±0.05. Test compound was tested at 2.00 μM bi-directionally in duplicate. Digoxin was tested at 10.0 μM bi-directionally in duplicate, while nadolol and metoprolol were tested at 2.00 μM in A to B direction in duplicate. Final DMSO concentration was adjusted to less than 1%. The plate was incubated for 2 hours in CO2 incubator at 37±1° C., with 5% CO2 at saturated humidity without shaking. And all samples after mixed with acetonitrile containing internal standard were centrifuged at 3200×g for 10 min. For nadolol and metoprolol, 200 μL supernatant solution was diluted with 600 μL ultra-pure water for LC-MS/MS analysis. For digoxin and test compounds, 200 μL supernatant solution was diluted with 200 μL ultra-pure water for LC-MS/MS analysis. Concentrations of test and control compounds in starting solution, donor solution, and receiver solution were quantified by LC-MS/MS methodologies, using peak area ratio of analyte/internal standard. After transport assay, lucifer yellow rejection assay was applied to determine the Caco-2 cell monolayer integrity.
(§3) The apparent permeability coefficient Papp (cm/s) was calculated using the equation: […]
(§4) Where dCp/dt is the cumulative concentration of compound in the receiver chamber as a function of time (μM/s); Vr is the solution volume in the receiver chamber (0.075 mL on the apical side, 0.25 mL on the basolateral side); A is the surface area for the transport, i.e. 0.0804 cm^2 for the area of the monolayer; Co is the initial concentration in the donor chamber (μM). The efflux ratio was calculated using the equation: […]
(§5) Percent recovery was calculated using the equation: […]
(§6) Where Vd is the volume in the donor chambers (0.075 mL on the apical side, 0.25 mL on the basolateral side); Ca and Cr are the final concentrations of transport compound in donor and receiver chambers, respectively.

Caco-2 cells = assay: in vitro
Experimental: as §1, §2, §3, §4, §5, §6

[1] = Oral delivery of unformulated Bumetanide Dibenzylamide in Beagle dogs, pharmacokinetics and bioavailability; format: in vivo; conditions: oral non-formulated Bumetanide Dibenzylamide
[2] = Pharmacokinetic study in cynomolgus monkeys after oral (nasogastric) gavage, sublingual and intravenous administration; format: in vivo; conditions: monkeys, after SL dosing of Bumetanide Dibenzylamide
Experimental: A pharmacokinetic study was done in cynomolgus monkeys following single oral (nasogastric) gavage, sublingual, and intravenous administration. […] Calibration curves, blanks, and analytical QCs were prepared in monkey plasma (K2EDTA). The extracts were evaporated to dryness, reconstituted, and then analyzed by LC-MS/MS. The calibration range was 0.250-250 ng/mL for both analytes.
If the criteria for either the calibration curve or the analytical QCs were not met, the analytical run was rejected. […] No deviations were found during the bioanalytical phase of the study conducted by Origin. Calibration curves were derived from the individual analyte to internal standard peak area ratios using the least squared regression of the ratio versus the nominal concentration of the calibration standard, prepared in duplicate. The regression was then used to back-calculate the concentration of each calibration standard, QC sample and study sample. […] Analyst® Software Version 1.6.3 (Applied Biosystems-MDS Sciex), operated with Windows® (Microsoft), was used for instrument control, data acquisition, and peak integrations. Peak area ratios, standard curve regressions, and sample concentration/accuracy values were calculated with Analyst® Software Version 1.6.3. Other results (e.g., mean statistics) were calculated with Excel® (Microsoft).
There was no apparent sex difference for the second formulation. […] A fourth formulation comprising the composition B listed in Table 54 was also administered in monheys.

physchem = assay: physchem
From the text: Crucial to the efficacy of any treatment by a pharmaceutical composition is the overall systemic bioavailability of the pharmaceutical composition used for said treatment. […] LogP is one measure of lipophyilicity, and is the octal:water partition coefficient expressed as a log ratio of molecule in octanol relative to water after mixing.

[3] = Oral SEDDS-formulated versus unformulated Bumetanide amides in rats, blood concentration; format: in vivo; conditions: male rats
Experimental: SEDDS-formulated and unformulated Bumetanide Morpholinoamide and Bumetanide Diethylamide were orally administered to rats. The experiment was conducted as described previously in regards to Bumetanide Dibenzylamide. Three male and three female rats at each time point for each of the SEDDS and non-SEDDS treatments were used. […] As this appeared to be experimental error, all female rats were removed from the data.

[4] = Caco-2, pH 7.4, Mean Papp (10^−6 cm/s) A to B
[5] = human, Caco-2, 2 h, 10 μM, pH 7.4

C[C@H]1O[C@@H](O[C@H]2[C@@H](O)C[C@H](O[C@H]3[C@@H](O)C[C@H](O[C@H]4CC[C@@]5(C)[C@H](CC[C@@H]6[C@@H]5C[C@@H](O)[C@]5(C)[C@@H](C7=CC(=O)OC7)CC[C@]65O)C4)O[C@@H]3C)O[C@@H]2C)C[C@H](O)[C@@H]1O [Digoxin, reference compound]
efflux ratio at 2 h, 10 μM (in vitro; Caco-2, pH 7.4, Efflux Ratio): 586 | recovery at 2 h (in vitro): 94.7% | recovery at 2 h, 10 μM (in vitro; Caco-2, pH 7.4, Mean % Solution Recovery B to A): 108% | Papp A→B at 2 h (in vitro; [4]): 0.0223 ×10⁻⁶ cm/s | Papp B→A at 2 h, 10 μM (in vitro; Caco-2, pH 7.4, Mean Papp (10^−6 cm/s) B to A): 13.1 ×10⁻⁶ cm/s | Papp A→B at 2 h (in vitro; Caco-2, pH 7.4, Rank Papp): < 0.5 ×10⁻⁶ cm/s | Rank Efflux Transporter Substrate (Caco-2 cells; Caco-2): Likely | Efflux Ratio (Caco-2 cells; [5]): 800 | Mean % Solution Recovery B to A (Caco-2 cells; [5]): 103.4% | Mean % Solution Recovery A to B (Caco-2 cells; human, Caco-2, 2 h, pH 7.4): 97.4%

CCCCNc1cc(C(=O)O)cc(S(N)(=O)=O)c1Oc1ccccc1 [Bumetanide, reference compound]
Bumetanide levels [1]: not measureable | plasma concentrations of Bumetanide [2]: no measurable concentrations | logP (physchem): ~2.61

CC(C)(C)NCC(O)COc1cccc2c1CC(O)C(O)C2 (stereo not drawn) [nadolol, reference compound]
recovery at 2 h (in vitro): 97% | Papp A→B at 2 h (in vitro; [4]): 0.0983 ×10⁻⁶ cm/s | Papp A→B at 2 h (in vitro; Caco-2, pH 7.4, Rank Papp): < 0.5 ×10⁻⁶ cm/s | Mean % Solution Recovery A to B (Caco-2 cells; human, Caco-2, 2 h, pH 7.4): 98.5%

CCCCNc1cc(C(=O)N(CC)CC)cc(S(N)(=O)=O)c1Oc1ccccc1 [Bumetanide Diethylamide]
Mean % Solution Recovery A to B (Caco-2 cells; Caco-2, A to B, second Table 73 (diethylamide run)): 77.4% | Mean Papp (10^−6 cm/s) A to B (Caco-2 cells; Caco-2, A to B, test compound 2.00 μM (digoxin 10.0 μM), 2 hours, HBSS pH 7.40, second Table 73 (diethylamide run)): 1.33 10^−6 cm/s | Efflux Ratio (Caco-2 cells; Caco-2, B to A / A to B, second Table 73 (diethylamide run)): 31.6 | Mean % Solution Recovery B to A (Caco-2 cells; Caco-2, B to A, second Table 73 (diethylamide run)): 88.5% | Mean Papp (10^−6 cm/s) B to A (Caco-2 cells; Caco-2, B to A, test compound 2.00 μM (digoxin 10.0 μM), 2 hours, HBSS pH 7.40, second Table 73 (diethylamide run)): 42.0 10^−6 cm/s | Rank Efflux Transporter Substrate (Caco-2 cells; Caco-2 efflux ratio rank, second Table 73 (diethylamide run)): Likely | Rank Papp (Caco-2 cells; Caco-2 permeability rank, second Table 73 (diethylamide run)): Moderate (Moderate permeability: 0.500<Papp<2.50 (×10^−6 cm/s)) | logP (physchem; octanol:water partition coefficient): 3.11

CCCCNc1cc(C(=O)N2CCOCC2)cc(S(N)(=O)=O)c1Oc1ccccc1 [Bumetanide Morpholinoamide]
blood concentration by 24 hrs [3]: no detectable concentration

CCCCNc1cc(C(=O)N(Cc2ccccc2)Cc2ccccc2)cc(S(N)(=O)=O)c1Oc1ccccc1 [Bumetanide Dibenzylamide unformulated]
Efflux Ratio (Caco-2 cells; Caco-2): >0.825 | Mean % Solution Recovery A to B (Caco-2 cells; Caco-2): <4.9% | Mean % Solution Recovery B to A (Caco-2 cells; Caco-2): 25.4% | Rank Efflux Transporter Substrate (Caco-2 cells; Caco-2): Poor or non- | Mean Papp (10^−6 cm/s) A to B (Caco-2 cells; Caco-2, pH 7.4): <0.480 10^−6 cm/s | Mean Papp (10^−6 cm/s) B to A (Caco-2 cells; Caco-2, pH 7.4): 0.396 10^−6 cm/s

CCCCNc1cc(C(=O)N2CCOCC2)cc(S(N)(=O)=O)c1Oc1ccccc1 [Bumetanide morpholinoamide unformulated]
Efflux Ratio (Caco-2 cells; Caco-2): 43.8 | Mean % Solution Recovery A to B (Caco-2 cells; Caco-2): 87.4% | Mean % Solution Recovery B to A (Caco-2 cells; Caco-2): 99.6% | Rank Efflux Transporter Substrate (Caco-2 cells; Caco-2): Likely | Mean Papp (10^−6 cm/s) A to B (Caco-2 cells; Caco-2, pH 7.4): 0.709 10^−6 cm/s | Mean Papp (10^−6 cm/s) B to A (Caco-2 cells; Caco-2, pH 7.4): 31.0 10^−6 cm/s

COCCc1ccc(OCC(O)CNC(C)C)cc1 (stereo not drawn) [metoprolol, reference compound]
recovery at 2 h (in vitro): 94.7% | Papp A→B at 2 h (in vitro; [4]): 19.2 ×10⁻⁶ cm/s | Papp A→B at 2 h (in vitro; Caco-2, pH 7.4, Rank Papp): > 2.5 ×10⁻⁶ cm/s | Mean % Solution Recovery A to B (Caco-2 cells; human, Caco-2, 2 h, pH 7.4): 95.7%
